Test results from patent US9937214B2, “Lactobacillus crispatus and application thereof” (priority 2013, dated 2018).
Positions of bridges follow the written chain, without caps; N, C: chain ends. Non-standard residues stand in square brackets, D forms with d. Residues, ends and D or L forms follow the SMILES beside them. *: point of attachment. Ileψ(thiazoline)Cys = CC[C@H](C)[C@H](N)C1=N[C@H](C(=O)*)CS1; dOrn = NCCC[C@@H](N)C(=O)O

System: Lactobacillus crispatus 262-1
Assay: Antibiotic sensitivity test, agar-diffusion paper-disc method; as to Inhibition zone diameter: test concentration or dose not given here
Type: cell-based
Settings: for Inhibition zone diameter: paper content/sheet per antibiotic as in Table 3; for Sensitivity determination: T0 generation, three levels: sensitivity, mediation, drug resistance, criteria of reference bacteria; for Sensitivity determination (passage stability test): embodiment 6

Molecule | Inhibition zone diameter (T0 generation of the strain) [mm] | Sensitivity determination | Inhibition zone diameter (T30 generation of the strain) [mm] | Inhibition zone diameter (T50 generation of the strain) [mm] | Sensitivity determination (passage stability test) | other results
CC1(C)S[C@@H]2[C@H](NC(=O)[C@H](N)c3ccc(O)cc3)C(=O)N2[C@H]1C(=O)O [Amoxicillin] | 20 | Sensitivity | 24 | 23 | mediation | Sensitivity determination (listed as amoxicillin): sensitivity
CC1(C)S[C@@H]2[C@H](NC(=O)[C@H](N)c3ccccc3)C(=O)N2[C@H]1C(=O)O [Ampicillin] | 24 | Sensitivity | 24 | 25 | mediation | Sensitivity determination (listed as ampicillin): sensitivity
CC[C@H]1OC(=O)[C@H](C)[C@@H](O[C@H]2C[C@@](C)(OC)[C@@H](O)[C@H](C)O2)[C@H](C)[C@@H](O[C@@H]2O[C@H](C)C[C@H](N(C)C)[C@H]2O)[C@](C)(O)C[C@@H](C)CN(C)[C@H](C)[C@@H](O)[C@]1(C)O [Azithromycin] | 31 | Sensitivity | 31 | 30 | – | Sensitivity determination (listed as azithromycin): sensitivity
CC[C@H](C)[C@H](N)C1=N[C@H](C(=O)N[C@@H](CC(C)C)C(=O)N[C@H](CCC(=O)O)C(=O)N[C@H](C(=O)N[C@H]2CCCCNC(=O)[C@H](CC(N)=O)NC(=O)[C@@H](CC(=O)O)NC(=O)[C@H](Cc3cnc[nH]3)NC(=O)[C@@H](Cc3ccccc3)NC(=O)[C@H]([C@@H](C)CC)NC(=O)[C@@H](CCCN)NC2=O)[C@@H](C)CC)CS1 [Bacitracin] ({Ileψ(thiazoline)Cys}-L[dE]IK[dOrn]I[dF]H[dD]N; lactam 4-C) | 0 | drug resistance | 0 | 0 | drug resistance | –
CO/N=C(\C(=O)N[C@@H]1C(=O)N2C(C(=O)O)=C(CSc3nc(=O)c(=O)[nH]n3C)CS[C@H]12)c1csc(N)n1 [Ceftriaxone] | 29 | Sensitivity | 31 | 30 | mediation | Sensitivity determination (listed as ceftriaxone): sensitivity
O=C(N[C@H](CO)[C@H](O)c1ccc([N+](=O)[O-])cc1)C(Cl)Cl [Chloramphenicol] | 35 | Sensitivity | 36 | 35 | – | Sensitivity determination (listed as chloromycetin): sensitivity
CCC[C@@H]1C[C@@H](C(=O)N[C@@H]([C@H]2O[C@H](SC)[C@H](O)[C@@H](O)[C@H]2O)[C@H](C)Cl)N(C)C1 [Clindamycin] | 35 | – | 37 | 36 | – | –
CC[C@H]1OC(=O)[C@H](C)[C@@H](O[C@H]2C[C@@](C)(OC)[C@@H](O)[C@H](C)O2)[C@H](C)[C@@H](O[C@@H]2O[C@H](C)C[C@H](N(C)C)[C@H]2O)[C@](C)(O)C[C@@H](C)C(=O)[C@H](C)[C@@H](O)[C@]1(C)O [Erythromycin] | 36 | Sensitivity | 41 | 39 | – | Sensitivity determination (listed as erythromycin): sensitivity
C[C@@H](O)[C@H]1C(=O)N2C(C(=O)O)=C(SCCN=CN)C[C@H]12 [Imipenem] | 40 | – | 40 | 40 | – | –
NC[C@H]1O[C@H](O[C@H]2[C@H](O)[C@@H](O[C@H]3O[C@H](CO)[C@@H](O)[C@H](N)[C@H]3O)[C@H](N)C[C@@H]2N)[C@H](O)[C@@H](O)[C@@H]1O [Kanamycin] | 0 | – | 0 | 0 | – | –
Cc1ncc([N+](=O)[O-])n1CCO [Metronidazole] | 0 | drug resistance | 0 | 0 | drug resistance | –
CCN1CCN(C(=O)N[C@@H](C(=O)N[C@@H]2C(=O)N3[C@@H]2SC(C)(C)[C@@H]3C(=O)O)c2ccccc2)C(=O)C1=O [Piperacillin] | 35 | Sensitivity | 37 | 35 | – | Sensitivity determination (listed as piperacillin): sensitivity
CN(C)[C@@H]1C(O)=C(C(N)=O)C(=O)[C@@]2(O)C(O)=C3C(=O)c4c(O)cccc4[C@@](C)(O)[C@H]3C[C@@H]12 [Tetracycline] | 38 | – | 40 | 39 | – | –
CN[C@H](CC(C)C)C(=O)N[C@H]1C(=O)N[C@@H](CC(N)=O)C(=O)N[C@H]2C(=O)N[C@H]3C(=O)N[C@H](C(=O)N[C@H](C(=O)O)c4cc(O)cc(O)c4-c4cc3ccc4O)[C@H](O)c3ccc(c(Cl)c3)Oc3cc2cc(c3O[C@@H]2O[C@H](CO)[C@@H](O)[C@H](O)[C@H]2O[C@H]2C[C@](C)(N)[C@H](O)[C@H](C)O2)Oc2ccc(cc2Cl)[C@H]1O [Vancomycin] | 26 | Sensitivity | 27 | 26 | mediation | Sensitivity determination (listed as vancomycin): sensitivity
Cc1onc(-c2ccccc2)c1C(=O)N[C@@H]1C(=O)N2[C@@H]1SC(C)(C)[C@@H]2C(=O)O [oxacillin] | 9 | Mediation | 10 | 9 | mediation | –
Gentamicin | 0 | drug resistance | 0 | 0 | drug resistance | –
Penicillin | 24 | Mediation | 25 | 24 | mediation | Sensitivity determination (listed as penicillin): mediation
